Test system: chondrocyte cell-lines cloned from foetal femur
Assay: Von Kossa staining of calcium mineralisation in monolayer cultures of immortalised foetal femur chondrocyte cell-lines
Format: cell-based, human
Conditions: three chondrocyte clones incubated at the oncogene's non-permissive temperature (39° C.) in the presence of 1,25(OH)2D3; in its absence cells do not actively mineralise calcium; FIG. 5
Procedure: Foetal rib or femur tissue was taken at 7-9 weeks of gestation and placed in tissue culture flasks (Costar Limited, UK) in Eagle's minimum essential medium (Gibco Co Limited, UK) containing antibiotics and L-glutamine as well as 10% heat in activated foetal bovine serum. Cultured cells were maintained in a humidified atmosphere at 5% CO2 and 37° C. and medium changed at regular intervals (2-3 days). As is usual for primary cultures of resected tissue, cells within the sample move out from the body of the tissue, adhere to the flask surface, and replicate, potentially, to cover the whole surface of the tissue culture dish. After an initial period of, say, 2 weeks in primary culture. The cell population was transfected with a temperature sensitive mutant of the simium virus-40 derived large tumour (T) antigen using retroviral transduction.
In short, amphotropically packaged retroviral particles comprising this construct and a resistance marker to geneticin, G418 (kindly donated by Dr M O'Hare, Institute of Cancer Research, Royal Marsden Hospital, Lincoln's Inn, Sutton, Surrey, alternatively, essentially the same construct expressing a temperature sensitive mutant of the SV40-T oncogene was kindly donated by Professor Phil Gaillimore, CRC Laboratories, University of Birmingham, UK) was added to the medium together with polybrene (Sigma Chemicals) to a final concentration of 0.8 mg/ml. […]

Compound: C=C1/C(=C\C=C2/CCC[C@]3(C)[C@@H]([C@H](C)CCCC(C)(C)O)CC[C@@H]23)C[C@@H](O)C[C@@H]1O [1,25(OH)2D3]
- calcium mineralisation (Von Kossa staining): each clone actively mineralises calcium

— patent publication US6558664B1, “Chondrocyte cell-lines” (Cell Factors plc, priority 1994, dated 2003)
